Two molecules from patent EP4139472B1, “A METHOD FOR BIOTESTING OF A CONDENSED PHASE SUBSTANCES AND/OR MIXTURES ECOTOXICITY AND USE OF THE METHOD IN ECOTOXYCOLOGY” (Uniwersytet Jana Dlugosza w Czestochowie, priority 2020, dated 2021) can be followed below.

Each structure is given as a SMILES string. Values joined by “and” are separate entries in the source; they are usually repeats but may differ in a detail not shown here. Equal values may be shown once. Read-outs that look alike come from different tables or passages of the source.

The subject of this assay is A. fischeri bacteria. The assay is described as follows: Bioluminescence inhibition of A. fischeri, modified Microtox Basic Solid Phase Test (synthetic sample with inert auxiliary substance). The assay is classed as cell-based, Aliivibrio fischeri. The following applies: for EC50: Aliivibrio fischeri. From the text:
According to the invention, instead of a homogeneous solid sample with a relatively large mass (7 g in the Microtox® Basic Solid Phase Test), which is often unreachable for laboratory measurements of expensive or innovative materials, a so-called synthetic sample (as opposed to natural samples, i.e. soils and bottom sediments) of the same mass, containing the tested substance and an inert auxiliary substance (so called solid matrix) is being created. As a result, the synthetic sample simulates the soil contaminated with the tested substance. The synthetic sample prepared in such a way can be dispersed in the diluent and processed further according to the Microtox® Basic Solid Phase Test protocol. The Microtox® Basic Solid Phase Test protocol provides a series of steps covering, in turn: • suspending 7 g of the test sample in 35 ml of diluent in a 50 ml beaker, mixing for 10 min; • taking 2 mL of the suspension described above, while stirring it, into an appropriate cuvette; • performing a series of 1:2 dilutions of the test sample using the diluent; • reconstitution of freeze-dried Aliivibrio fischeri bacteria; • preparation and 15 min incubation of the reagent (10 µL of reconstituted bacteria and 0.5 mL of diluent); • bioluminescence measurement for time zero (bioluminescence before contact with the sample); • adding the reagent to each test sample and to the control cuvette; • incubation for 5 min, measurement of bioluminescence after 5 min incubation of bacteria with the sample; • incubation for another 10 min, measurement of bioluminescence after 15 min incubation of bacteria with the sample. The Microtox® protocol provides for the use of a 30-well incubator block maintaining a temperature of 15° C in the wells of the sample cuvettes and 5.5° C in the well of the bacterial suspension. According to the invention, a sample containing the substance to be test and an auxiliary substance is subjected to the procedure provided for in the Microtox® Basic Solid Phase Test. The pre-suspension is made by mixing the synthetic sample with a diluent (Microtox® Solid Phase Diluent: 3.5% aqueous NaCl solution) in appropriate proportions provided for in the measurement protocol, for example 7 g of the sample is mixed with 35 mL of diluent (weight/volume ratio of the sample to diluent is 1:5 g/mL), but after validation it is possible to use dispersions of any proportion (preferably from 1:4 g/mL to 1:6 g/mL) and scale (preferably samples weighing 3-10 g depending on capacity of the equipment used). In the case of hydrophobic chemicals, it is allowed to suspend them in a mixture of methanol with a diluent (e.g. 4% methanol solution) to increase their solubility. Then, the suspension is stirred in a tall beaker on a stirrer so that, as a result of mixing, the vortex always has the same, repeatable height, equal to half the height of the liquid level. A representative sample for further dilutions is drawn with an automatic pipette while the suspension is stirred, from half the depth of the suspension according to the Microtox® protocol. The further steps in the measurement (including but not limited to dilution, sampling, luminescence measurement, etc.) also follow the Microtox® Basic Solid Phase Test Procedure. […] A representative sample for further dilutions was taken from half the depth of the suspension without stirring interruption according to the Microtox® Basic Solid Phase Test protocol. […] The measurements were carried out in triplicate and the EC50 values were determined after 5 and 15 minutes of exposure. The obtained results with 95% confidence intervals, as well as the correlation coefficients are summarized below, in Table 2. Table 2. EC50 values [mg/L] obtained after 5 and 15 minutes exposure of A. fischeri bacteria to pure valsartan along with the corresponding confidence intervals.

Turning to `CCCCc1nc(Cl)c(CO)n1Cc1ccc(-c2ccccc2-c2nn[nH]n2)cc1` [losartan potassium], where the note is “5 min exposure, 0.200 g losartan potassium + 5.600 g quartz sand in 35 mL diluent (1:[…]), single replicate, 95% confidence interval in brackets”, the “EC50 5 min” value was 594.25 (343.09-1028.98) mg/L and 667.23 (490.17-908.21) mg/L. Also, the “EC50 15 min” value (15 min exposure, 0.200 g losartan potassium + 5.600 g quartz sand in 35 mL diluent (1:[…]), single replicate, 95% confidence interval in brackets) is 694.10 (541.64-889.82) mg/L and 629.33 (172.93-2289.90) mg/L. Moreover, the EC50 (as a rule, the concentration needed to bring the measured effect to its halfway point) (5 min, 5 min exposure, 0.200 g losartan potassium + 5.600 g quartz sand in 35 mL diluent (1:[…]), single replicate, 95% confidence interval in brackets, read-out: EC50 5 min) was 490 µg/mL; the concentration for a half-maximal effect (EC50) (5 min, 5 min exposure, pure losartan potassium + quartz sand, mean of three replicates, read-out: EC50 5 min, Mean) is 584 ± 72.7 µg/mL; the 50% effective concentration (EC50) (0.25 h, 15 min exposure, 0.200 g losartan potassium + 5.600 g quartz sand in 35 mL diluent (1:[…]), single replicate, 95% confidence interval in brackets, read-out: EC50 15 min) was 654 µg/mL; the 50% effective concentration (EC50) (0.25 h, 15 min exposure, pure losartan potassium + quartz sand, mean of three replicates, read-out: EC50 15 min, Mean) was determined as 659 ± 26.7 µg/mL.
As to `CCCCC(=O)N(Cc1ccc(-c2ccccc2-c2nnn[nH]2)cc1)[C@H](C(=O)O)C(C)C` [valsartan], where the note is “5 min exposure, 0.160 g pure valsartan + 6.840 g quartz sand in 35 mL diluent, single replicate, 95% confidence interval in brackets”, the “EC50 5 min” value is 172.06 (102.02-290.17) mg/L and 88.31 (83.90-92.91) mg/L. In addition, the “EC50 15 min” value (15 min exposure, 0.160 g pure valsartan + 6.840 g quartz sand in 35 mL diluent, single replicate, 95% confidence interval in brackets) is 341.70 (338.33-358.97) mg/L and 242.80 (103.75-568.26) mg/L and 120.04 (99.20-145.28) mg/L. The EC50 amounted to 169 µg/mL (5 min, 5 min exposure, 0.160 g pure valsartan + 6.840 g quartz sand in 35 mL diluent, single replicate, 95% confidence interval in brackets, read-out: EC50 5 min); 143 ± 38.8 µg/mL (5 min, 5 min exposure, pure valsartan + quartz sand, mean of three replicates, read-out: EC50 5 min, Mean); 235 ± 90.7 µg/mL (0.25 h, 15 min exposure, pure valsartan + quartz sand, mean of three replicates, read-out: EC50 15 min, Mean).
